Here are results for three compounds from patent publication US9968694B2, “Compositions and methods for non-invasive imaging” (MERRIMACK PHARMACEUTICALS, INC., priority 2012, dated 2018).

For data set [1] the following is noted: over several weeks, cited from earlier work.
A short description of data set [2]: Cu complex formation in HS buffer (appearance, precipitation). Particulars: 0.1 mM chelator and Cu in HS buffer pH 6.5. The class given is physicochemical. The procedure: Cu:4-DEAP-ATSC and Cu:ATSM complexes were formed as follows. In 1 mL HS were added 5 μL of 20 mM CuSO4 and 5 μl of 20 mM 4-DEAP-ATSC (in DMSO) or 5 μL of 20 mM ATSM (in DMSO). […] The chelator and Cu concentration was 0.1 mM.

Data set [3] in a line: Storage stability of 4-DEAP-ATSC formulations (degradation). The class given is physicochemical. The procedure:
Various 4-DEAP-ATSC formulations (see Table 10 below) were stored under different conditions. At designated time points, samples were collected where their storage stability were evaluated by functional readouts.
4-DEAP-ATSC was formulated in citrate buffer in a range of pH (pH 4-7). […] At a pH of between 6 and 7, the rates of degradation were very similar, with less than 15% degradation observed over a 4-month period when stored at −20° C. or 4° C.
4-DEAP-ATSC formulated in citrate buffer was stored at 4 different temperatures (−20° C., 4° C., 30° C., and 37° C.). […] (>60%) over a 1-month period. On the other hand, 4-DEAP-ATSC formulations stored at −20° C. and 4° C. can be stably preserved with less than 15% of degradation detected over a period of 4 months.
Various 4-DEAP-ATSC formulations were lyophilized and stored under different conditions to study the effect of lyophilization on their storage stability. […] In addition, mannitol was added to the formulation to serve as a bulking agent for lyophilization.
A set of 4-DEAP-ATSC formulations was filled with argon as an alternative means to improve storage stability of the liquid formulations. […] Significant degradation was still detected in formulations stored at elevated temperatures (30° C. and 37° C.). Additionally, storage stability of inert gas-filled lyophilized formulations was similar to air-filled lyophilized formulations (FIG. 19F).

A short description of data set [4]: ^64Cu chelation efficiency of 4-DEAP-ATSC by instant thin layer chromatography (ITLC). The class given is physicochemical. The text has this:
[…] An instant thin layer chromatography (ITLC) assay was used for quantifying the fractions of uncomplexed ^64Cu and ^64Cu(II)-4-DEAP-ATSC complex in the chelation mixture. The uncomplexed ^64Cu can be detected at the solvent front, while the ^64Cu(II)-4-DEAP-ATSC complex remained at the origin where the sample is spotted.

The nature of data set [5]: Efficiency of ^64Cu:4-DEAP-ATSC loading into liposomes, size exclusion chromatography. The class given is physicochemical. The procedure:
The efficiency of liposome loading for Step 2 (see FIG. 3) was determined. […] Encapsulated (liposomal) radioactivity was separated from total radioactivity using size exclusion chromatography. From this it was determined that >90% of the ^64Cu was loaded into the liposome at 4-DEAP-ATSC:lipid ratios <2 mol % as shown in Table 2.

Read-outs that look alike come from different tables or passages of the source. Bounds are passed on as bounds.

`[Cu]` [copper]: the Toxic dose levels in data set [1] (65 kg adult) is approximately 154 µg/kg; in data set [1], more than 10 mg/person/day.
As for `CNC(=S)NN=C(C)C(C)=NNC(=S)NC` [ATSM, diacetyl 4-methylthiosemicarbazone, reference compound], the “appearance of Cu complex sample” value in data set [2] was “became turbid and developed a brown precipitate”.
As to `CCN(CC)CCCNC(=S)NN=C(C)C(C)=NNC(=S)NCCCN(CC)CC` [Sample 4-DEAP-ATSC, diacetyl 4,4′bis (3-(N,N-diethylamino)propyl)thiosemicarbazone], the degradation entry was “less than 15%” in data set [3] (citrate buffer pH between 6 and 7, 4-month period, stored at −20° C. or 4° C.); more than 60% in data set [3] (citrate buffer, stored at 30° C. and 37° C., 1-month period); “less than 15%” in data set [3] (citrate buffer, stored at −20° C. and 4° C., period of 4 months). Further, the “effect of inert gas atmosphere on storage stability” value in data set [3] (liquid formulations filled with argon) was “did not improve storage stability”. Further, the “effect of lyophilization on storage stability” value in data set [3] (lyophilized formulations) is listed as “effective method to inhibit degradation”. For the same compound, in data set [3] (mannitol as bulking agent for lyophilization), the “effect of mannitol on storage stability” value is on record as “no effect on the storage stability”. Further, the “appearance of Cu complex sample” value in data set [2] is “remained clear, without any signs of precipitation”. Besides, the “Chelation Efficiency” value is listed as 11-46% in data set [4] (Specific Radioactivity 0.01 mCi/nmol); 98% in data set [4] (Specific Radioactivity 0.04 mCi/nmol); 68-97% in data set [4] (Specific Radioactivity 0.07 mCi/nmol); 99% in data set [4] (Specific Radioactivity 0.08 mCi/nmol); 99% in data set [4] (Specific Radioactivity 0.09 mCi/nmol); 99-100% in data set [4] (Specific Radioactivity 0.1 mCi/nmol). For the same compound, the “Chelation Efficiency” value in data set [4] (Specific Radioactivity 0.15 mCi/nmol) is given as 98-99%; in data set [4] (Specific Radioactivity 0.17 mCi/nmol), 96%; in data set [4] (Specific Radioactivity 0.18 mCi/nmol) it was 94%; in data set [4] (Specific Radioactivity 0.2 mCi/nmol) it was 96-99%; in data set [4] (Specific Radioactivity 0.3 mCi/nmol), 98%; in data set [4] (Specific Radioactivity 0.65 mCi/nmol), 99%. In addition, the “Chelation Efficiency” value in data set [4] (Specific Radioactivity 13.1 mCi/nmol) worked out at 99%. Also, the efficiency of chelation in data set [4] (specific radioactivities ranging from 0.07-0.3 mCi/nmol) is recorded as 94-99%. Further, the “^64Cu Loading Efficiency” value in data set [5] (4-DEAP-ATSC:Lipid Ratio 0.01% (mol %)) is listed as 96-98%; in data set [5] (4-DEAP-ATSC:Lipid Ratio 0.04% (mol %)), 96-98%; in data set [5] (4-DEAP-ATSC:Lipid Ratio 0.10% (mol %)), 95-97%; in data set [5] (4-DEAP-ATSC:Lipid Ratio 0.15% (mol %)) it was 92-97%; in data set [5] (4-DEAP-ATSC:Lipid Ratio 0.25% (mol %)), 92-97%; in data set [5] (4-DEAP-ATSC:Lipid Ratio 0.40% (mol %)), 94-98%. Further, the “^64Cu Loading Efficiency” value was 92-96% in data set [5] (4-DEAP-ATSC:Lipid Ratio 0.50% (mol %)); 96% in data set [5] (4-DEAP-ATSC:Lipid Ratio 0.67% (mol %)); 92% in data set [5] (4-DEAP-ATSC:Lipid Ratio 0.75% (mol %)); 93-98% in data set [5] (4-DEAP-ATSC:Lipid Ratio 1% (mol %)); 91-97% in data set [5] (4-DEAP-ATSC:Lipid Ratio 2% (mol %)); 86% in data set [5] (4-DEAP-ATSC:Lipid Ratio 4.20% (mol %)). Also, the “^64Cu Loading Efficiency” value in data set [5] (4-DEAP-ATSC:Lipid Ratio 5.00% (mol %)) is listed as 92-93%; in data set [5] (4-DEAP-ATSC:Lipid Ratio 10% (mol %)), 82-92%; in data set [5] (4-DEAP-ATSC:Lipid Ratio 25% (mol %)), 90%; in data set [5] (4-DEAP-ATSC:Lipid Ratio 50% (mol %)), 71%. In addition, in data set [5] (4-DEAP-ATSC:lipid ratios <2 mol %), the “^64Cu loaded into the liposome” value was more than 90%.
